# Measurements as given in patent publication US20090042964A1, “AMINO-5-[SUBSTITUTED-4-(DIFLUOROMETHOXY)PHENYL]-5-PHENYLIMIDAZOLONE COMPOUNDS AS BETA-SECRETASE INHIBITORS” (Wyeth, priority 2007, published 2009).
# Target: human BACE1 (Homo sapiens, UniProt P56817)
# Experiment: Fluorescent kinetic assay, evaluation of BACE1 binding affinity of test compounds
# Format: biochemical
# Details: 10 nM human BACE1, 25 μM substrate WABC-6, pH 4.5, room temperature; read-out: BACE1 IC50
# Protocol: Concentration is determined by absorbance at 354 nm using an extinction coefficient of 18172 M^-1 cm^-1, the concentration of stock substrate is corrected, and the substrate stock stored in small aliquots in -80° C. […] Determination of Stock Enzyme Concentration: the stock concentration of each enzyme is determined by absorbance at 280 nm using an of 64150 M^-1 cm^-1 for hBACE1 and MuBACE1, 62870 M^-1 cm^-1 for hBACE2 in 6 M Guanidinium Hydrochloride (from Research Organics, Cat. # 5134G-2), pH 6. […] Biochem. 182, 319-326). Dilution and mixing steps: total reaction volume: 100 μL 2× inhibitor dilutions in buffer A (66.7 mM Na-Acetate, pH 4.5, 0.0667% CHAPS) were prepared, 4× enzyme dilution in buffer A (66.7 mM Na-Acetate, pH 4.5, 0.0667% CHAPS) were prepared, 100 μM substrate dilution in 1×PBS was prepared, and 50 μL 2× Inhibitor, 25 μL 100 μM substrate are added to each well of 96-well plate (from DYNEX Technologies, VWR #: 11311-046), immediately followed by 25 μL 4× enzyme (added to the inhibitor and substrate mix), and the fluorescence readings are initiated.
# Chain of human BACE1 (P56817 46-501): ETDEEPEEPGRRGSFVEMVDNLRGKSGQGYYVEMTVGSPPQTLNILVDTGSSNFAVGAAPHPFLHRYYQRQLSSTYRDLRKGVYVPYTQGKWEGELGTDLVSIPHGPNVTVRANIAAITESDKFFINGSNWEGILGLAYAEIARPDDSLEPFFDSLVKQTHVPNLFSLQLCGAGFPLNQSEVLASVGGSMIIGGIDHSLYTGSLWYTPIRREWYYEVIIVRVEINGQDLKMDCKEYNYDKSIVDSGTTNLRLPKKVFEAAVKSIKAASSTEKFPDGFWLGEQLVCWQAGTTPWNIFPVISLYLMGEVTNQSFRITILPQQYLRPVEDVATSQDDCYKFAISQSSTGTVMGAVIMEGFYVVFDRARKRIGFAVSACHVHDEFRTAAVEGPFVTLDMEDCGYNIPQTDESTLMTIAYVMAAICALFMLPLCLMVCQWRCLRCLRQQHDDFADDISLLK
row,IC50 [µM],Compound
1,< 0.1,"CCc1cc(C2(c3cccc(C#CCF)c3)N=C(N)N(C)C2=O)ccc1OC(F)F (stereo not shown) [Example 158, 2-Amino-5-[4-(difluoromethoxy)-3-ethylphenyl]-5-[3-(3-fluoroprop-1-yn-1-yl)phenyl]-3-methyl-3,5-dihydro-4H-imidazol-4-one]"
2,< 0.1,"CCc1cc([C@]2(c3ccc(F)c(C#CC(C)C)c3)N=C(N)N(C)C2=O)ccc1OC(F)F [Example 154, (5R)-2-Amino-5-[4-(difluoromethoxy)-3-ethylphenyl]-5-[4-fluoro-3-(3-methylbut-1-yn-1-yl)phenyl]-3-methyl-3,5-dihydro-4H-imidazol-4-one]"
3,< 0.1,"CN1C(=O)C(c2ccc(OC(F)F)c(Cl)c2)(c2ccc(F)c(OCC(F)F)c2)N=C1N (stereo not shown) [Example 100, 2-Amino-5-[3-chloro-4-(difluoromethoxy)phenyl]-5-[3-(2,2-difluoroethoxy)-4-fluorophenyl]-3-methyl-3,5-dihydro-4H-imidazol-4-one]"
4,< 0.1,"CCc1cc(C2(c3ccc(F)c(OCC(F)F)c3)N=C(N)N(C)C2=O)ccc1OC(F)F (stereo not shown) [Example 117, 2-Amino-5-[3-(2,2-difluoroethoxy)-4-fluorophenyl]-5-[4-(difluoromethoxy)-3-ethylphenyl]-3-methyl-3,5-dihydro-4H-imidazol-4-one]"
5,< 0.1,"COC/C=C/c1cccc(C2(c3ccc(OC(F)F)c(C)c3)N=C(N)N(C)C2=O)c1 (stereo not shown) [Example 62, 2-Amino-5-[4-(difluoromethoxy)-3-methylphenyl]-5-[3-((E)-3-methoxyprop-1-enyl)phenyl]-3-methyl-3,5-dihydro-4H-imidazol-4-one]"
6,< 0.1,"COCC/C=C/c1cccc(C2(c3ccc(OC(F)F)c(Cl)c3)N=C(N)N(C)C2=O)c1 (stereo not shown) [Example 67, 2-Amino-5-[3-chloro-4-(difluoromethoxy)phenyl)-5-[3-((E)-4-methoxybut-1-enyl)phenyl]-3-methyl-3,5-dihydro-4H-imidazol-4-one]"
7,< 0.1,"Cc1cc([C@]2(c3cccc(C#CCCF)c3)N=C(N)N(C)C2=O)ccc1OC(F)F [Example 206, (5S)-2-amino-5-[4-(difluoromethoxy)-3-methylphenyl]-5-[3-(4-fluorobut-1-yn-1-yl)phenyl]-3-methyl-3,5-dihydro-4H-imidazol-4-one]"
8,< 0.1,"CCCOc1cccc(C2(c3ccc(OC(F)F)c(C)c3)N=C(N)N(C)C2=O)c1 (stereo not shown) [Example 44, 2-Amino-5-[4-(difluoromethoxy)-3-methylphenyl]-3-methyl-5-(3-propoxyphenyl)-3,5-dihydro-4H-imidazol-4-one]"
9,< 0.1,"CN1C(=O)[C@](c2cccc(C#CCF)c2)(c2ccc(OC(F)F)c(C3CC3)c2)N=C1N [Example 213, (5S)-2-amino-5-[3-cyclopropyl-4-(difluoromethoxy)phenyl]-5-[3-(3-fluoroprop-1-yn-1-yl)phenyl]-3-methyl-3,5-dihydro-4H-imidazol-4-one]"
10,< 0.1,"C/C=C/c1cccc(C2(c3ccc(OC(F)F)c(Cl)c3)N=C(N)N(C)C2=O)c1 (stereo not shown) [Example 65, 2-Amino-5-[3-chloro-4-(difluoromethoxy)phenyl]-3-methyl-5-[((E)-3-prop-1-enyl)phenyl]-3,5-dihydro-4H-imidazol-4-one]"
11,> 1,"CN1C(=O)[C@@](c2ccc(F)c(OCC(F)F)c2)(c2ccc(OC(F)F)c(C3CC3)c2)N=C1N [Example 124, (5S)-2-Amino-5-[3-cyclopropyl-4-(difluoromethoxy)phenyl]-5-[3-(2,2-difluoroethoxy)-4-fluorophenyl]-3-methyl-3,5-dihydro-4H-imidazol-4-one]"
12,< 0.1,"CN1C(=O)C(c2ccc(F)c(C#CCCF)c2)(c2ccc(OC(F)F)c(CCF)c2)N=C1N (stereo not shown) [Example 91, 2-amino-5-[4-(difluoromethoxy)-3-(2-fluoroethyl)phenyl]-5-[4-fluoro-3-(4-fluorobut-1-yn-1-yl)phenyl]-3-methyl-3,5-dihydro-4H-imidazol-4-one]"
13,< 0.1,"Cc1cc(C2(c3ccc(F)c(OCCC(F)F)c3)N=C(N)N(C)C2=O)ccc1OC(F)F (stereo not shown) [Example 130, 2-Amino-5-[4-(difluoromethoxy)-3-methylphenyl]-5-[3-(3,3-difluoropropoxy)-4-fluorophenyl]-3-methyl-3,5-dihydro-4H-imidazol-4-one]"
14,< 0.1,"COC/C=C/c1cccc(C2(c3ccc(OC(F)F)c(Cl)c3)N=C(N)N(C)C2=O)c1 (stereo not shown) [Example 66, 2-Amino-5-[3-chloro-4-(difluoromethoxy)phenyl]-5-[3-((E)-3-methoxyprop-1-enyl)phenyl]-3-methyl-3,5-dihydro-4H-imidazol-4-one]"
15,< 0.1,"Cc1cc([C@]2(c3ccc(F)c(OCCF)c3)N=C(N)N(C)C2=O)ccc1OC(F)F [Example 113, (5R)-2-Amino-5-[4-(difluoromethoxy)-3-methylphenyl]-5-[4-fluoro-3-(2-fluoroethoxy)phenyl]-3-methyl-3,5-dihydro-4H-imidazol-4-one]"
16,> 1,"CCc1cc([C@@]2(c3cccc(C#CCF)c3)N=C(N)N(C)C2=O)ccc1OC(F)F [Example 160, (5R)-2-Amino-5-[4-(difluoromethoxy)-3-ethylphenyl]-5-[3-(3-fluoroprop-1-yn-1-yl)phenyl]-3-methyl-3,5-dihydro-4H-imidazol-4-one]"
17,< 0.1,"CN1C(=O)C(c2cccc(C#CC(C)(C)O)c2)(c2ccc(OC(F)F)c(C3CC3)c2)N=C1N (stereo not shown) [Example 179, 2-amino-4-(3-cyclopropyl-4-(difluoromethoxy)phenyl)-4-(3-(3-hydroxy-3-methylbut-1-ynyl)phenyl)-1-methyl-1H-imidazol-5(4H)-one]"
18,< 0.1,"CCC#Cc1cc([C@@]2(c3ccc(OC(F)F)c(C)c3)N=C(N)N(C)C2=O)ccc1F (single isomer, unassigned) [Example 83]"
19,< 0.1,"Cc1cc(C2(c3cccc(OCC(F)F)c3)N=C(N)N(C)C2=O)ccc1OC(F)F (stereo not shown) [Example 43, 2-Amino-5-[3-(2,2-difluoroethoxy)phenyl]-5-[4-(difluoromethoxy)-3-methylphenyl]-3-methyl-3,5-dihydro-4H-imidazol-4-one]"
20,0.11 to 1,"2-Amino-5-[3-chloro-4-(difluoromethoxy)phenyl]-3-methyl-5-phenyl-3,5-dihydro-4H-imidazol-4-one [Example 16]"
21,< 0.1,"CN1C(=O)[C@](c2ccc(F)c(OCC(F)F)c2)(c2ccc(OC(F)F)c(C3CC3)c2)N=C1N [Example 125, (5R)-2-Amino-5-[3-cyclopropyl-4-(difluoromethoxy)phenyl]-5-[3-(2,2-difluoroethoxy)-4-fluorophenyl]-3-methyl-3,5-dihydro-4H-imidazol-4-one]"
22,< 0.1,"CN1C(=O)[C@](c2cccc(Br)c2)(c2ccc(OC(F)F)c(C3CC3)c2)N=C1N (single isomer, unassigned) [Example 165]"
23,< 0.1,"CN1C(=O)C(c2cccc(/C=C/CCF)c2)(c2ccc(OC(F)F)c(Cl)c2)N=C1N (stereo not shown) [Example 68, 2-Amino-5-[3-chloro-4-(difluoromethoxy)phenyl)-5-[3-((E)-4-fluoro-but-1-enyl)phenyl]-3-methyl-3,5-dihydro-4H-imidazol-4-one]"
24,< 0.1,"CCCOc1cc(C2(c3ccc(OC(F)F)c(C)c3)N=C(N)N(C)C2=O)ccc1F (stereo in doubt) [Example 116, (5S)-2-Amino-5-[4-(difluoromethoxy)-3-methylphenyl]-5-(4-fluoro-3-propoxyphenyl)-3-methyl-3,5-dihydro-4H-imidazol-4-one]"
25,< 0.1,Cc1cc(C2(c3cccc(OCCF)c3)N=C(N)N(C)C2=O)ccc1OC(F)F (stereo not shown) [Example 42]
26,< 0.1,"COCC#Cc1cccc([C@@]2(c3ccc(OC(F)F)c(C)c3)N=C(N)N(C)C2=O)c1 [Example 69, (5S)-2-Amino-4-(4-(difluoromethoxy)-3-methylphenyl)-4-(3-(3-methoxyprop-1-ynyl)phenyl)-1-methyl-1H-imidazol-5(4H)-one]"
27,< 0.1,"CCCOc1cc(C2(c3ccc(OC(F)F)c(C)c3)N=C(N)N(C)C2=O)ccc1F (stereo not shown) [Example 114, 2-Amino-5-[4-(difluoromethoxy)-3-methylphenyl]-5-(4-fluoro-3-propoxyphenyl)-3-methyl-3,5-dihydro-4H-imidazol-4-one]"
28,< 0.1,"CCOc1cc(C2(c3ccc(OC(F)F)c(Cl)c3)N=C(N)N(C)C2=O)ccc1F (stereo not shown) [Example 96, 2-Amino-5-[3-chloro-4-(difluoromethoxy)phenyl]-5-(3-ethoxy-4-fluorophenyl)-3-methyl-3,5-dihydro-4H-imidazol-4-one]"
29,> 1,"CN1C(=O)[C@@](c2cccc(C#CCF)c2)(c2ccc(OC(F)F)c(C3CC3)c2)N=C1N [Example 212, (5R)-2-amino-5-[3-cyclopropyl-4-(difluoromethoxy)phenyl]-5-[3-(3-fluoroprop-1-yn-1-yl)phenyl]-3-methyl-3,5-dihydro-4H-imidazol-4-one]"

row,Compound,IC50 [µM]
1,"CCCCOc1cccc(C2(c3ccc(OC(F)F)c(Cl)c3)N=C(N)N(C)C2=O)c1 (stereo not shown) [Example 35, 2-Amino-5-(3-butoxyphenyl)-5-[3-chloro-4-(difluoromethoxy)-phenyl]-3-methyl-3,5-dihydro-4H-imidazol-4-one]",< 0.1

# Same assay, conditions: BACE1 IC50 μM, 10 nM human BACE1, 25 μM substrate WABC-6, pH 4.5, room temperature
row,Compound,IC50 [µM]
1,"CCc1cc([C@]2(c3ccccc3)N=C(N)N(C)C2=O)ccc1OC(F)F [Example 23, (5S)-2-Amino-4-[4-(difluoromethoxy)-3-ethylphenyl]-1-methyl-4-phenyl-1H-imidazol-5(4H)-one]",< 0.1
